In brackets after ≈: the same amount, converted by molar mass. Several values for one entry are separate records, joined by “and”; a condition that tells them apart may be missing. Identical values can stand only once. Like-named read-outs stand apart in the source and are kept apart here.
Assays:
[1] = In vitro metabolism in dog liver microsomes; format: in vitro ADME
Protocol: (§1) The total volume of each incubation system was 200 μL, and the medium was 100 mM phosphate buffer solution (PBS, pH7.4) comprising a final concentration of 3 μM DC037009 and 2 mM NADPH. A37° C. water bath was used for incubation. After 3 minutes of pre-incubation, various liver microsomes protein were added into the buffer-substrate-cofactors mixture to start reaction. The concentration of liver microsomal protein of various species was 1.0 mg/mL. After reacting 60 min, the reaction was terminated with isovolumetric ice-cold acetonitrile. The total volume of blank was 200 μL, and the medium was 100 mM phosphate buffer solution (PBS, pH 7.4), comprising a final concentration of 3 μM DC037009 and heat inactivated microsomal proteins. All incubation samples were double.
(§2) A 150 μL sample from each of double incubation samples was mixed. A 300 μL of acetonitrile was added, mixed by vortexing for 1 min, and centrifuged 5 min (11000 rpm). The supernatant was placed in a 10 mL tube, and dried in 40° C. with nitrogen stream. The residue was dissolved with 100 μL methanol/water (1:9, v/v). A 10 μL sample was taken for UPLC/Q-TOF MS analysis.

[2] = biological target: hERG (Homo sapiens, UniProt Q12809); assay: Inhibition effect on hERG; format: cell-based
[3] = In vitro metabolism in human liver microsomes; format: in vitro ADME
Protocol: as §1, §2

[4] = test system: BPH Rat model; assay: Pharmacodynamic experiment in BPH rat model (testosterone propionate), urination after water load; format: in vivo, SD rats; conditions: BPH model rats; for frequency of urination, single urine output: relation to dose: 3 doses, water load 30 mL/kg
Protocol: Establishing of BPH Rat model: 6-week-old male SD rats (n=49) (body weight about 200 g), in which 37 rats were BPH model group and daily injected testosterone propionate subcutaneously, and the other 12 rats were Sham group and injected olive oil, for 4 weeks. After 4 weeks, 49 rats received gavage in a dosage of 30 mL/kg of water, and urination for each rat was observed and recorded (recording each urine output and frequency of urination within two hours).
According to the above verification results, rats having abnormal urination were firstly excluded. Then, the normal BPH model rats were divided into 2 groups, 12 rats every group, and 12 rats of Sham group were singled out as control group. Grouping principles were as follows: there were significant differences of body weight, frequency of urination within two hours, single urine output and the total amount of urination between the two groups of BPH model and Sham group, and there were no significant differences between the two groups of BPH model.
Efficacy verification experiment. The experiment had seven groups: Sham group, silodosin group (BPH-1,3-group dose) and DC037009 group (BPH-2,3-group dose). Rats received gavage in a dosage of 5 mL/kg and each dose of the compound dissolved with CMCNa. After 20 min, the rats received gavage in a dosage of 30 mL/kg water. The study time interval of different doses of the same compound was over 24 hours.

[5] = Pharmacokinetics study in rats (gavage and intravenous); format: in vivo, SD rats; conditions: rat
Protocol: Gavage administration to rats. 3 healthy SD rats (male, weighed 200-220 g) were fasted for 12 hours before the administration but were allowed to drink water. Compound DC037009 was formulated with 10% DMSO/10% Tween 80/80% saline and was administered by 20 mg/kg dose and the dosing volume was 10 mL/kg.
Intravenous administration to rats. 3 healthy SD rats (male, weighed 200-220 g) were fasted for 12 hours before the administration but were allowed to drink water. Compound DC037009 was formulated with 10% DMSO/10% Tween 80/80% saline and was administered via the rat tail vein injection by 10 mg/kg dose and the dosing volume was 5 mL/kg.
Intravenous administration: 5 min, 0.25, 0.5, 1.0, 2.0, 3.0, 5.0, 7.0, 9.0 and 24 hrs after administration.
At the above time points, 0.3 mL blood obtained from post-eye venous plexus of rat was set into a heparinized tube, which was 11000 rpm centrifuged for 5 min, and the plasma was separated and frozen at −20° C. in a refrigerator.

[6] = test system: SD rats; assay: Repetitive dose toxicity experiment on SD rats for 14 days; format: in vivo; conditions: oral, 100 and 200 mg/kg for 14 days
[7] = test system: SD rats; assay: Acute toxicity experiment on SD rats by oral gavage; format: in vivo; conditions: single dose of 500 and 1000 mg/kg by oral gavage
Protocol: (§3) SD rats were administered compound DC037009 with single dose of 500 and 1000 mg/kg by oral gavage.

[8] = as above; format: in vivo; conditions: rat, in vivo, single dose, oral gavage, read-out: maximum tolerated dose (MTD)
Protocol: as §3

[9] = Solubility in different pH solution and pH changes of the solution; format: physicochemical
[10] = 3 μM DC037009, 1.0 mg/mL microsomal protein, NADPH, 60 min, UPLC/Q-TOF MS
[11] = under certain total urine output
[12] = male, SD, plasma, po, 20 mg/kg, gavage 20 mg/kg, individual animals 1-3
[13] = male, SD, plasma, po, 20 mg/kg, gavage 20 mg/kg, mean of 3
[14] = gavage 20 mg/kg, individual animals 1-3, 20 mg/kg
[15] = pH = 1 solution after adding compound
[16] = pH = 2 solution after adding compound
[17] = pH = 4 solution after adding compound
[18] = pH = 6 solution after adding compound
[19] = pH = 8 solution after adding compound

hERG, sequence (Q12809 whole entry): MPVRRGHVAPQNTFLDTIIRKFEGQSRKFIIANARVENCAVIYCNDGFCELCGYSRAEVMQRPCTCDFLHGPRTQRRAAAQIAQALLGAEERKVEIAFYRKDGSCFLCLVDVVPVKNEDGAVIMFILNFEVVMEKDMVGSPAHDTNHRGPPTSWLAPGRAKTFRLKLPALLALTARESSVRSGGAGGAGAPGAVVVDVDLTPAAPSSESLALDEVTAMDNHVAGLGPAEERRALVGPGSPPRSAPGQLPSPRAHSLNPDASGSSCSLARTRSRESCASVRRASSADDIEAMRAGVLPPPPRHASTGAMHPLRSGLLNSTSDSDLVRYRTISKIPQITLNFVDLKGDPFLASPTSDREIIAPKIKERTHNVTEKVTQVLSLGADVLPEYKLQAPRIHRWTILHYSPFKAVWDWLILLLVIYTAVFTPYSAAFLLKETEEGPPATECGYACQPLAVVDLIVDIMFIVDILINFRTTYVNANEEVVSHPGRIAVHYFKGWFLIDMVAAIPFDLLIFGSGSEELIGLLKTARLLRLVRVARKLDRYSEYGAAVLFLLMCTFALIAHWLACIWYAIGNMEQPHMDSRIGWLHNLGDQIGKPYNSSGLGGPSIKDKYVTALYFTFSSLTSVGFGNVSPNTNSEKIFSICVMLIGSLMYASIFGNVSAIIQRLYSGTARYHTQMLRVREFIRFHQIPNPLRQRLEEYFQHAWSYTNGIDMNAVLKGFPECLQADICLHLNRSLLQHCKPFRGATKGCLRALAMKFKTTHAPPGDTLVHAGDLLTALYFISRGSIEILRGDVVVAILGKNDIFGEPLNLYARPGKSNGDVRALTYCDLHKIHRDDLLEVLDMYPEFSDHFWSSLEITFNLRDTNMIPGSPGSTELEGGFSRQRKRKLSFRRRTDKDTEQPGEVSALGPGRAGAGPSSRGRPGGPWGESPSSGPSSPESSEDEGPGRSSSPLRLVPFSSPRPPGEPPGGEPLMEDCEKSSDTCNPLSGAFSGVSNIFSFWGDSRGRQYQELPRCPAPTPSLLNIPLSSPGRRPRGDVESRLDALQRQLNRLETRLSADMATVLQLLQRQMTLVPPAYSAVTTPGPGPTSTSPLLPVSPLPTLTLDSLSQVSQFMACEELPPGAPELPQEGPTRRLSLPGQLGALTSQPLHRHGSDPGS

For `COc1cc2c(cc1OC)CN1CCc3cc4c(cc3[C@@H]1C2)OCO4` [DC037009, S-(−)-2,3-methylenedioxy-10,11-dimethoxy-5,8,13,13a-tetrahydro-6H-dibenzo[a,g]quinolizine], the “Mass area, dog” value [1, 10] was 171.3, the “kinds of metabolites detected in dog liver microsome” value ([1]; 60 min incubation) was “six” and the “metabolic stability in dog liver microsome” value ([1]; 60 min incubation) was “in second place”. The “antagonistic activity to α1A-receptor relative to inhibitory activity on hERG” value [2] was 272 folds, the IC50 ([2]; hERG) was 8.1 µM and the “Maximum inhibition rate (%)” value ([2]; hERG) was 84.7%. The “Mass area, Human” value [3, 10] was 416.8, the “kinds of metabolites detected in human liver microsome” value ([3]; 60 min incubation) was “Four” and the “metabolic stability in human liver microsome” value ([3]; 60 min incubation) was “relatively higher”. The “efficacy compared with positive drug” value ([4]; gavage) was “comparable to the positive drug”, the onset dose ([4]; gavage) was 1 mg/kg and the “frequency of urination, single urine output: relation to dose” value ([4]; gavage) was “dose-dependent relationship”. For the same compound, the frequency of urination [4, 11] was “reduce frequency of urination”, the single urine output [4, 11] was “significantly increase” and the bioavailability ([5]; male, SD, plasma, oral, gavage 20 mg/kg versus intravenous 10 mg/kg) was 34.2%. It also gave a clearance ([5]; male, SD, plasma, intravenous injection 10 mg/kg, read-out: plasma clearance rate CL (converted)) of 39.7 mL/min/kg, a Vd ([5]; male, SD, plasma, intravenous injection 10 mg/kg, read-out: volume distribution stead state Vss) of 3.49 ± 0.24 L/kg and a half-life ([5]; male, SD, plasma, iv, 10 mg/kg, intravenous injection 10 mg/kg) of 5.44 ± 0.85 h. The AUC0-t ([5]; male, SD, plasma, iv, 10 mg/kg, intravenous injection 10 mg/kg, read-out: AUC0-t) was 4200 ± 141 ng·h/mL, the AUC(0-inf) [5, 12] was 2630 ng·h/mL and the half-life [5, 12] was 4.2 h. The AUC0-t ([5]; male, SD, plasma, po, 20 mg/kg, gavage 20 mg/kg, individual animals 1-3, read-out: AUC0-t) was 2570 ng·h/mL, the Cmax ([5]; male, SD, plasma, po, 20 mg/kg, gavage 20 mg/kg, individual animals 1-3, read-out: Cmax) was 289 ng/mL and the MRT ([5]; male, SD, plasma, po, 20 mg/kg, gavage 20 mg/kg, individual animals 1-3, read-out: MRT) was 6.45 h. It also gave a Tmax ([5]; male, SD, plasma, po, 20 mg/kg, gavage 20 mg/kg, individual animals 1-3, read-out: Tmax) of 0.5 h, an AUC(0-inf) [5, 13] of 2890 ng·h/mL and a half-life [5, 13] of 3.26 ± 0.82 h. It also gave an AUC0-t ([5]; male, SD, plasma, po, 20 mg/kg, gavage 20 mg/kg, mean of 3, read-out: AUC0-t) of 2870 ± 798 ng·h/mL, a Cmax ([5]; male, SD, plasma, po, 20 mg/kg, gavage 20 mg/kg, mean of 3, read-out: Cmax) of 453 ± 147 ng/mL and an MRT ([5]; male, SD, plasma, po, 20 mg/kg, gavage 20 mg/kg, mean of 3, read-out: MRT) of 5.04 h. The Tmax ([5]; male, SD, plasma, po, 20 mg/kg, gavage 20 mg/kg, mean of 3, read-out: Tmax) was 0.67 ± 0.29 h, the “AUC0-t” value [5, 14] was 2260 ng·h/mL and 3771 ng·h/mL and the “AUC0-∞” value [5, 14] was 2265 ng·h/mL and 3779 ng·h/mL. For the same compound, the “Cmax” value [5, 14] was 494 ng/mL and 575 ng/mL, the “MRT” value [5, 14] was 4.00 h and 4.67 h and the “Tmax” value [5, 14] was 1.00 h. The “t1/2” value [5, 14] was 2.89 h and 2.70 h, the “AUC0-t” value ([5]; gavage 20 mg/kg, mean of 3, 20 mg/kg) was 2260 ng·h/mL and the “changes of blood and coagulation indicators and serum biochemical indicators” value [6] was “did not show any toxicological significance”. The death [6] was “no death rat was found”, the gross anatomy [6] was “no pathological changes related to administrated drug” and the changes after anatomy [7] was “no obvious drug-related changes”. For the same compound, the MTD [8] was 1000 mg/kg, the “pH of solution after adding compound” value [9] was “would increase” and the “solubility in acidic solution compared with alkaline solution” value [9] was “greater than that in alkaline solution”. For the same compound, the solubility ([9]; pH 2 solution, pH 2, simulated gastric fluid, pH = 2 solution, read-out: Solubility (1)) was greater than 1000 µg/mL, the solubility ([9]; pH 2 solution, pH 2, simulated gastric fluid, pH = 2 solution, read-out: Solubility (2)) was greater than 1000 µg/mL and the solubility ([9]; pH 4 solution, pH 4, aqueous buffer, pH = 4 solution, read-out: Solubility (1)) was 401 µg/mL (≈ 1180 µM). For the same compound, the solubility ([9]; pH 4 solution, pH 4, aqueous buffer, pH = 4 solution, read-out: Solubility (2)) was 403 µg/mL (≈ 1190 µM), the Dissolving capacity ([9]; pH = 1 solution) was “Slightly soluble” and the “pH value (1)” value [9, 15] was 1.09. The “pH value (2)” value [9, 15] was 1.03, the solubility ([9]; pH = 1 solution, pH 1, simulated gastric fluid, pH = 1 solution, read-out: Solubility (1)) was greater than 1000 µg/mL and the solubility ([9]; pH = 1 solution, pH 1, simulated gastric fluid, pH = 1 solution, read-out: Solubility (2)) was greater than 1000 µg/mL. For the same compound, the Dissolving capacity ([9]; pH = 2 solution) was “Slightly soluble”, the “pH value (1)” value [9, 16] was 2.02 and the “pH value (2)” value [9, 16] was 2.07. For the same compound, the Dissolving capacity ([9]; pH = 4 solution) was “Slightly soluble”, the “pH value (1)” value [9, 17] was 5.02 and the “pH value (2)” value [9, 17] was 5.10. For the same compound, the Dissolving capacity ([9]; pH = 6 solution) was “Sparingly”, the “pH value (1)” value [9, 18] was 6.11 and the “pH value (2)” value [9, 18] was 6.14. For the same compound, the solubility ([9]; pH = 6 solution, pH 6, aqueous buffer, pH = 6 solution, read-out: Solubility (1)) was 46 µg/mL (≈ 136 µM), the solubility ([9]; pH = 6 solution, pH 6, aqueous buffer, pH = 6 solution, read-out: Solubility (2)) was 50.2 µg/mL (≈ 148 µM) and the Dissolving capacity ([9]; pH = 8 solution) was “Sparingly”. The “pH value (1)” value [9, 19] was 8.06, the “pH value (2)” value [9, 19] was 8.07 and the solubility ([9]; pH = 8 solution, pH 8, aqueous buffer, pH = 8 solution, read-out: Solubility (1)) was less than 10 µg/mL. The solubility ([9]; pH = 8 solution, pH 8, aqueous buffer, pH = 8 solution, read-out: Solubility (2)) was less than 10 µg/mL.
For `C[C@H](Cc1cc2c(c(C(N)=O)c1)N(CCCO)CC2)NCCOc1ccccc1OCC(F)(F)F` [Silodosin, reference compound], the “frequency of urination, single urine output: relation to dose” value ([4]; gavage) was “dose-dependent relationship”.
